{"source": "patent US20150174081A1", "about": "“LIQUID PHARMACEUTICAL COMPOSITION COMPRISING NITISINONE” (Swedish Orphan Biovitrum International AB, priority 2011, published 2015)", "key": {"[1]": {"experiment": "Stability of oxotetrahydroxanthenone solutions, LC-MS", "assay_type": "physicochemical", "protocol": "The stability study of the main degradation product in Example 6, oxotetrahydroxanthenone, is performed under similar conditions as described in Example 6. Samples of oxotetrahydroxanthenone (OTHX), 81 μg/ml in either citrate buffer pH 3.0 or phosphate buffer pH 6.8, were put on stability at +5° C., +25° C. and +37° C., respectively, for 6 months. The concentrations of OTHX and the secondary degradation products 1,3-cyclohexanedione (CHD) and 4-(trifluoromethyl)salicylic acid (TSA) were analyzed by LC-MS. The results, shown in Table XI, below, are expressed as percent of the initial concentration of OTHX. The mass balance expressed as the total recovery of CHD+OTHX+TSA compared to the initial concentration of OTHX were calculated from MmOTHX/(Mm CHD+MmTSA)×(CHDconc+TSAconc)+OTHXconc expressed in μg/ml where MmOTHX, MmCHD and MmTSA are the molecular masses corresponding to 282, 202 and 206 g/mol, respectively."}, "[2]": {"experiment": "Particle size diameter (PSD) of nitisinone before and after air-jet micronization", "assay_type": "physicochemical", "text": "A lab-scale air-jet mill, 2 inches qualification model, Sturtevant Inc., was used to micronize nitisinone obtained from the company Bachem, Switzerland. The mill was operated with tangential flow (i.e. the air and drug are fed in the same direction in the milling chamber). The unmilled drug was fed into the mill using a Venturi feed system, Syncron®, Magnet Feeder model F-TO-C, where air was used to draw the feed material into the milling chamber. A product filter bag was affixed to the outlet of the mill, through which the exhausts and the milled drug collects. The milling conditions were set as follows: • Grind air: Dry nitrogen gas • Grind pressure: 90 psi • Feed pressure: 85 psi • Room conditions: Ambient 5 g of the API was passed through the lab-scale micronizer and the resulting material was collected (3.7 g). The material was analyzed for/by particle size diameter (PSD), assay and purity by high performance liquid chromatography (HPLC), x-ray powder diffraction (XRPD), differential scanning calorimetry (DSC) and polarized light microscopy (PLM)."}, "[3]": {"settings": "Citrate buffer pH 3.0, 5° C., 1.8 months"}, "[4]": {"settings": "Citrate buffer pH 3.0, 5° C., 3 months"}, "[5]": {"settings": "Citrate buffer pH 3.0, 5° C., 6 months"}, "[6]": {"settings": "Citrate buffer pH 3.0, 25° C., 1.8 months"}, "[7]": {"settings": "Citrate buffer pH 3.0, 25° C., 3 months"}, "[8]": {"settings": "Citrate buffer pH 3.0, 25° C., 6 months"}, "[9]": {"settings": "Citrate buffer pH 3.0, 37° C., 1.8 months"}, "[10]": {"settings": "Citrate buffer pH 3.0, 37° C., 3 months"}, "[11]": {"settings": "Citrate buffer pH 3.0, 37° C., 6 months"}, "[12]": {"settings": "Phosphate buffer pH 6.8, 5° C., 1.8 months"}, "[13]": {"settings": "Phosphate buffer pH 6.8, 5° C., 3 months"}, "[14]": {"settings": "Phosphate buffer pH 6.8, 5° C., 6 months"}, "[15]": {"settings": "Phosphate buffer pH 6.8, 25° C., 1.8 months"}, "[16]": {"settings": "Phosphate buffer pH 6.8, 25° C., 3 months"}, "[17]": {"settings": "Phosphate buffer pH 6.8, 25° C., 6 months"}, "[18]": {"settings": "Phosphate buffer pH 6.8, 37° C., 1.8 months"}, "[19]": {"settings": "Phosphate buffer pH 6.8, 37° C., 3 months"}, "[20]": {"settings": "Phosphate buffer pH 6.8, 37° C., 6 months"}}}
{"smiles": "O=C1CCCc2oc3cc(C(F)(F)F)ccc3c(=O)c21", "note": "[OTHX, 6-(trifluoromethyl)-3,4-dihydro-1H-xanthenene-1,9(2H)-dione]", "values": [{"measurement": "Concentration of OTHX", "setting": "[1]; [3]", "value": "96.7% of the initial concentration of OTHX"}, {"measurement": "Concentration of secondary degradation product CHD", "setting": "[1]; [3]", "value": "0.0% of the initial concentration of OTHX"}, {"measurement": "Concentration of secondary degradation product TSA", "setting": "[1]; [3]", "value": "0.0% of the initial concentration of OTHX"}, {"measurement": "Concentration of OTHX", "setting": "[1]; [4]", "value": "96.9% of the initial concentration of OTHX"}, {"measurement": "Concentration of secondary degradation product CHD", "setting": "[1]; [4]", "value": "0.0% of the initial concentration of OTHX"}, {"measurement": "Concentration of secondary degradation product TSA", "setting": "[1]; [4]", "value": "0.0% of the initial concentration of OTHX"}, {"measurement": "Concentration of OTHX", "setting": "[1]; [5]", "value": "91.6% of the initial concentration of OTHX"}, {"measurement": "Concentration of secondary degradation product CHD", "setting": "[1]; [5]", "value": "0.0% of the initial concentration of OTHX"}, {"measurement": "Concentration of secondary degradation product TSA", "setting": "[1]; [5]", "value": "0.0% of the initial concentration of OTHX"}, {"measurement": "Concentration of OTHX", "setting": "[1]; [6]", "value": "96.7% of the initial concentration of OTHX"}, {"measurement": "Concentration of secondary degradation product CHD", "setting": "[1]; [6]", "value": "0.0% of the initial concentration of OTHX"}, {"measurement": "Concentration of secondary degradation product TSA", "setting": "[1]; [6]", "value": "0.0% of the initial concentration of OTHX"}, {"measurement": "Concentration of OTHX", "setting": "[1]; [7]", "value": "102.7% of the initial concentration of OTHX"}, {"measurement": "Concentration of secondary degradation product CHD", "setting": "[1]; [7]", "value": "0.0% of the initial concentration of OTHX"}, {"measurement": "Concentration of secondary degradation product TSA", "setting": "[1]; [7]", "value": "0.0% of the initial concentration of OTHX"}, {"measurement": "Concentration of OTHX", "setting": "[1]; [8]", "value": "92.3% of the initial concentration of OTHX"}, {"measurement": "Concentration of secondary degradation product CHD", "setting": "[1]; [8]", "value": "0.0% of the initial concentration of OTHX"}, {"measurement": "Concentration of secondary degradation product TSA", "setting": "[1]; [8]", "value": "0.0% of the initial concentration of OTHX"}, {"measurement": "Concentration of OTHX", "setting": "[1]; [9]", "value": "97.9% of the initial concentration of OTHX"}, {"measurement": "Concentration of secondary degradation product CHD", "setting": "[1]; [9]", "value": "0.0% of the initial concentration of OTHX"}, {"measurement": "Concentration of secondary degradation product TSA", "setting": "[1]; [9]", "value": "0.2% of the initial concentration of OTHX"}, {"measurement": "Concentration of OTHX", "setting": "[1]; [10]", "value": "97.7% of the initial concentration of OTHX"}, {"measurement": "Concentration of secondary degradation product CHD", "setting": "[1]; [10]", "value": "0.0% of the initial concentration of OTHX"}, {"measurement": "Concentration of secondary degradation product TSA", "setting": "[1]; [10]", "value": "0.0% of the initial concentration of OTHX"}, {"measurement": "Concentration of OTHX", "setting": "[1]; [11]", "value": "95.3% of the initial concentration of OTHX"}, {"measurement": "Concentration of secondary degradation product CHD", "setting": "[1]; [11]", "value": "0.0% of the initial concentration of OTHX"}, {"measurement": "Concentration of secondary degradation product TSA", "setting": "[1]; [11]", "value": "0.0% of the initial concentration of OTHX"}, {"measurement": "Concentration of OTHX", "setting": "[1]; [12]", "value": "96.7% of the initial concentration of OTHX"}, {"measurement": "Concentration of secondary degradation product CHD", "setting": "[1]; [12]", "value": "0.0% of the initial concentration of OTHX"}, {"measurement": "Concentration of secondary degradation product TSA", "setting": "[1]; [12]", "value": "1.4% of the initial concentration of OTHX"}, {"measurement": "Concentration of OTHX", "setting": "[1]; [13]", "value": "91.0% of the initial concentration of OTHX"}, {"measurement": "Concentration of secondary degradation product CHD", "setting": "[1]; [13]", "value": "0.7% of the initial concentration of OTHX"}, {"measurement": "Concentration of secondary degradation product TSA", "setting": "[1]; [13]", "value": "1.9% of the initial concentration of OTHX"}, {"measurement": "Concentration of OTHX", "setting": "[1]; [14]", "value": "83.1% of the initial concentration of OTHX"}, {"measurement": "Concentration of secondary degradation product CHD", "setting": "[1]; [14]", "value": "0.0% of the initial concentration of OTHX"}, {"measurement": "Concentration of secondary degradation product TSA", "setting": "[1]; [14]", "value": "0.0% of the initial concentration of OTHX"}, {"measurement": "Concentration of OTHX", "setting": "[1]; [15]", "value": "74.8% of the initial concentration of OTHX"}, {"measurement": "Concentration of secondary degradation product CHD", "setting": "[1]; [15]", "value": "7.7% of the initial concentration of OTHX"}, {"measurement": "Concentration of secondary degradation product TSA", "setting": "[1]; [15]", "value": "13.0% of the initial concentration of OTHX"}, {"measurement": "Concentration of OTHX", "setting": "[1]; [16]", "value": "63.2% of the initial concentration of OTHX"}, {"measurement": "Concentration of secondary degradation product CHD", "setting": "[1]; [16]", "value": "9.7% of the initial concentration of OTHX"}, {"measurement": "Concentration of secondary degradation product TSA", "setting": "[1]; [16]", "value": "20.2% of the initial concentration of OTHX"}, {"measurement": "Concentration of OTHX", "setting": "[1]; [17]", "value": "44.8% of the initial concentration of OTHX"}, {"measurement": "Concentration of secondary degradation product CHD", "setting": "[1]; [17]", "value": "25.2% of the initial concentration of OTHX"}, {"measurement": "Concentration of secondary degradation product TSA", "setting": "[1]; [17]", "value": "36.4% of the initial concentration of OTHX"}, {"measurement": "Concentration of OTHX", "setting": "[1]; [18]", "value": "33.5% of the initial concentration of OTHX"}, {"measurement": "Concentration of secondary degradation product CHD", "setting": "[1]; [18]", "value": "22.2% of the initial concentration of OTHX"}, {"measurement": "Concentration of secondary degradation product TSA", "setting": "[1]; [18]", "value": "38.6% of the initial concentration of OTHX"}, {"measurement": "Concentration of OTHX", "setting": "[1]; [19]", "value": "13.7% of the initial concentration of OTHX"}, {"measurement": "Concentration of secondary degradation product CHD", "setting": "[1]; [19]", "value": "21.5% of the initial concentration of OTHX"}, {"measurement": "Concentration of secondary degradation product TSA", "setting": "[1]; [19]", "value": "49.1% of the initial concentration of OTHX"}, {"measurement": "Concentration of OTHX", "setting": "[1]; [20]", "value": "0.4% of the initial concentration of OTHX"}, {"measurement": "Concentration of secondary degradation product CHD", "setting": "[1]; [20]", "value": "32.8% of the initial concentration of OTHX"}, {"measurement": "Concentration of secondary degradation product TSA", "setting": "[1]; [20]", "value": "66.4% of the initial concentration of OTHX"}]}
{"smiles": "O=C1CCCC(=O)C1C(=O)c1ccc(C(F)(F)F)cc1[N+](=O)[O-]", "note": "[Start material, 2-(2-nitro-4-trifluoromethylbenzoyl)-1,3-cyclohexanedione]", "values": [{"measurement": "Particle size diameter d10", "setting": "[2]", "value": 20.50, "unit": "microns"}, {"measurement": "Particle size diameter d20", "setting": "[2]", "value": 33.10, "unit": "microns"}, {"measurement": "Particle size diameter d50", "setting": "[2]", "value": 60.01, "unit": "microns"}, {"measurement": "Particle size diameter d80", "setting": "[2]", "value": 94.42, "unit": "microns"}, {"measurement": "Particle size diameter d90", "setting": "[2]", "value": 115.11, "unit": "microns"}]}
{"smiles": "O=C1CCCC(=O)C1C(=O)c1ccc(C(F)(F)F)cc1[N+](=O)[O-]", "note": "[Micronized material, 2-(2-nitro-4-trifluoromethylbenzoyl)-1,3-cyclohexanedione]", "values": [{"measurement": "Particle size diameter d10", "setting": "[2]", "value": 0.30, "unit": "microns"}, {"measurement": "Particle size diameter d20", "setting": "[2]", "value": 0.47, "unit": "microns"}, {"measurement": "Particle size diameter d50", "setting": "[2]", "value": 1.29, "unit": "microns"}, {"measurement": "Particle size diameter d80", "setting": "[2]", "value": 2.59, "unit": "microns"}, {"measurement": "Particle size diameter d90", "setting": "[2]", "value": 3.59, "unit": "microns"}]}
